The record followed here is patent US8017350B2, “Glimepiride- and insulin-induced glycosylphosphatidylinositol-specific phospholipase C regulation” (Sanofi-Aventis Deutschland GmbH, priority 2004, dated 2011).

Test [1] concerns the target T1, porcine pancreatic lipase (PL) (Sus scrofa, UniProt P00591).
T1 construct: crude porcine pancreatic lipase (PL); purchased SigmalAldrich (Deisenhofen, Germany); host or cells: porcine pancreas (crude preparation)
Nature of the test: pancreatic lipase assay (tributyrin, pH stat). As to conditions: 50 μM. In kind it is biochemical. The protocol:
(§1) Hormone-sensitive lipase (HSL) and lipoprotein lipase (LPL) were measured using a radiolabeled triolein droplet emulsion as described in “Vertesy et al., (2002) Journal Antibiotics 55:480-494”. Pancreatic lipase (PL) was determined by incubation of 0.25 mmol tributyrin in 2 ml of 5 mM Tris/HCl (pH 6.5), 6 mM sodium taurodeoxycholate, 150 mM NaCl, 1 mM CaCl2 with porcine PL and colipase in the same buffer using a recording pH stat (stirring at 1000 rpm at 25° C.) with the pH adjusted to 6.5. PC-PLC was assayed by incubation of 0.2 ml of 10 mM dipalmitoyllecithin, 0.1 ml of 10 mM SDC and 0.1 ml of 0.03 M CaCl2 with bacterial PC-PLC (in 50 mM Tris/HCl, pH 7.5, 0.1% BSA) for 10 min at 37° C. The reaction was terminated by addition of 0.1 ml of 50% TCA and subsequently of 2.5 ml of […]. After centrifugation (1500×g, 15 min), 0.2-ml portions of the upper methanol/water phase (˜1.33 ml) were removed, supplemented with 0.5 ml of 60% HClO4, then heated at 170° C. for 1 h and finally analyzed for inorganic phosphate. Mammalian PI-PLC was measured by incubation of 0.1 ml of 10 mM PI, 0.1 ml of 0.8% sodium deoxycholate, 0.1% BSA, 0.2 ml of 100 mM sodium borate (pH 7.5) and rat liver PI-PLC for 20 min at 37° C. The reaction was terminated and further processed as described for the PC-PLC. […] Radioactive phosphatidic acid was detected by phosphorimaging. […]

The target in test [2] is T2, bacterial PC-PLC (Bacillus cereus) (Bacillus cereus, UniProt P09598).
T2 construct: purchased SigmalAldrich (Deisenhofen, Germany)
Description: PC-PLC assay (dipalmitoyllecithin). Type of test: biochemical. Conditions: 50 μM. The protocol:
as §1

In test [3] the test system is GPI-proteins 5′-Nuc, Gce1 and aP in isolated rat adipocytes. Nature of the test: localization of lipolytically cleaved and uncleaved GPI-proteins at hcDIGs, IcDIGs and total plasma membranes (TX-114 partitioning). Type of test: cell-based.
Test [4] deals with pp59Lyn and IRS-1 in isolated rat adipocytes. Nature of the test: tyrosine phosphorylation of pp59Lyn and IRS-1. In kind it is cell-based. The protocol:
Polypeptides separated by SDS-PAGE were transferred to polyvinylidene difluoride membranes using the semidry procedure as described in “Müller, G. et al., (2001) Mol. Cell. Biol. 21: 4553-4567”. Washed membranes were incubated with anti-caveolin-1 (1:2000), anti-pp59^Lyn (1:1250), anti-aP (1:500), anti-5′-Nuc (1:750) and anti-IRS-1 (1:2000) antibodies for 4 h at 15° C. Washed membranes were incubated with horseradish peroxidase-coupled secondary goat anti-mouse (1:2000) or goat anti-rabbit IgG (1:4000) antibodies. Labeled proteins were visualized by enhanced chemiluminescence.
FIG. 7: Effect of GPI-2350 on the glimepiride/insulin-induced activation of signaling proteins. Isolated rat adipocytes were treated (5 min, 37° C.) without or with GPI-2350 (Panels A, 50 μM; Panels B, increasing conc.) and then incubated (120 min, 37° C.) in the absence or presence of insulin (10 nM) or glimepiride (20 μM). IRS-1 and pp59^Lyn were immunoprecipitated from the defatted postnuclear infranatant (see Materials and Methods) and solubilized combined hc/lcDIGs, respectively, and then immunoblotted for phosphotyrosine. […]

The mark [5] stands for this setting: amphiphilic version in hcDIGs of basal adipocytes set at 100, GPI-2350 50 μM, insulin 10 nM, glimepiride 20 μM.

The structures appear in SMILES notation.

T1 sequence (P00591 whole entry): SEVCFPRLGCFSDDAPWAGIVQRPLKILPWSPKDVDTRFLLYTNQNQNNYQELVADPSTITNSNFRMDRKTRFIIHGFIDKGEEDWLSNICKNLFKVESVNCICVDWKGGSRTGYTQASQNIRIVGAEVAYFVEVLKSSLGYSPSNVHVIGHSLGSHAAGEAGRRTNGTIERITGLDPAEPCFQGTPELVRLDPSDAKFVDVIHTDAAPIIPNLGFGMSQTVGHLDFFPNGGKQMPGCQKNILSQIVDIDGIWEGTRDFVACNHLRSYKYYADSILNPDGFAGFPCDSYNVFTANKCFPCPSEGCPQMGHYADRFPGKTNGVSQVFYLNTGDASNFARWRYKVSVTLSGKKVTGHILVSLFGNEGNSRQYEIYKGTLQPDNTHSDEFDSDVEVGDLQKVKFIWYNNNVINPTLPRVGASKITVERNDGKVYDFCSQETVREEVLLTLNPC
T1 sequence (P02703 23-112 partner): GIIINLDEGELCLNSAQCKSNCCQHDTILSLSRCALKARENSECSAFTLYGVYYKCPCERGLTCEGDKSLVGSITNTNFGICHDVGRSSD
T2 sequence (P09598 39-283 limits assumed): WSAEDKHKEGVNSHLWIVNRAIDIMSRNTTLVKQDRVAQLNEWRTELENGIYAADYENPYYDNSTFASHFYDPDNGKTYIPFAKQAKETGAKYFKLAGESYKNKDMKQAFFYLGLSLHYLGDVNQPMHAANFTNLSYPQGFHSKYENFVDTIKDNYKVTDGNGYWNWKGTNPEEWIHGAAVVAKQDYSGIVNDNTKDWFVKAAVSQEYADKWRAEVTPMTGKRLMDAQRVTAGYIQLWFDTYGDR

`CCCCCCCCCCCCP1(=O)O[C@@H]2[C@H](O)[C@@H](O)[C@H](O)[C@@H](O)[C@@H]2O1` (stereo partly shown) [GPI-2350, myo-inositol-1,2-cyclo-dodecylphosphonic acid]: the “effect on PL” value in test [1] is given as “not significantly affected”. Also, the “effect on PC-PLC” value in test [2] is recorded as “not significantly affected”. Besides, the “effect on insulin/glimepiride-induced increase in hydrophilic GPI-proteins in plasma membranes” value in test [3] (50 μM) is reported as “completely blocked”. Also, in test [3] (setting [5]), the “aP hydroph. IcDIGs” value worked out at 2 ± 2 arb. units and the “aP hydroph. hcDIGs” value worked out at 10 ± 1 arb. units. Further, the “effect on insulin-induced tyrosine phosphorylation of IRS-1” value in test [4] is given as “only marginally reduced”. Also, the “effect on tyrosine phosphorylation of pp59Lyn and IRS-1 in response to glimepiride” value in test [4] (50 μM) is reported as “almost complete blockade”.
